Laboratory results from US11759530B2, “TKI permeability enhancers” (City of Hope, priority 2014, dated 2023).
Entries after “also recorded” stand apart in the source; their conditions may differ.

Experiments:
[1] = system: IL-1 production in human monocytes; conditions: read-out: IC50 for inhibiting IL-1 production in human monocytes; cited from earlier work
HCT116-GFPmiR21 cells [2] = assay: Drug screen: EGFP reactivation by anti-miR21 oligo plus compound (ASO uptake and function); format: cell-based, human; conditions: for TKI effect on oligo penetration and EGFP produced per cell: TKI 100 nm-1 uM added to the media in addition to the oligo; for ASO uptake (eGFP activation), FIG. 3: anti-mir21 + drug
[3] = system: NIH 3T3 mouse fibroblasts; conditions: read-out: IC50 for TGF-b-dependent cellular growth in NIH 3T3 mouse fibroblasts; cited from earlier work
mink lung cells = conditions: read-out: IC50 for transcription activation in mink lung cells; cited from earlier work
CK1 (S. pombe) = conditions: cited from earlier work
[4] = system: HCT-116 EGFP-miR21 tumor microspheroids; assay: Oligo penetration into tumor microspheroids, confocal microscopy; format: cell-based, human
Description: HCT-116 cells were transfected with a plasmid that expresses EGFP under the control of mir-21. When the cells express endogenous mir-21, the expression of EGFP is silenced. These cells were grown into tumor microspheroids, which were treated with an anti-mir21 mix mer oligonucleotide under gymnotic conditions (i.e., no carriers, no conjugations). When the anti-mir21 mix mer (product of Santaris Pharma, Horsholm, Denmark) enters the cells, it prevents the binding of the endogenous mir21 to its complementary sites on the 3′UTR of the EGFP gene. EGFP is then expressed and the cells glow green. Applicants discovered, by confocal microscopy, that the penetration of the anti-mir21 into the tumor microspheroid was only approximately 3 cells deep. Applicants verified this by treating the microspheroids with a Cy5-labeled anti-Bcl-2 phosphorothioate LNA gapmer. Here again, the penetration was only about 3 cell layers deep. Applicants then wanted to increase the oligo penetration and increase the amount of EGFP produced per cell. Applicants then began to screen a library of tyrosine kinase inhibitors (TKIs). These were added (100 nm-1 uM) to the media in addition to the oligo. Applicants examined 4 TKIs: Sorafenib was ineffective. […] This work has tremendous practical utility as it provides a way of screening for active oligos in a non-animal model, and provides a way to improve oligo penetration in tumors.
The HCT-116 EGFP-miR21 stable, clonal cell line was used to create the microspheroids in 96-well hanging-drop plates (Perfecta 3D, Biometrix Inc., Ann Arbor, Mich.). Following trypsinization, the cells were lifted and re-suspended at a density of 3×10^5 cells in 300 μL DMEM (Irvine Scientific, Santa Ana, Calif., USA) supplemented with 10% fetal calf serum (Irvine Scientific), 1 mM L-glutamine, 5% non-essential amino acids. To improve the 3D structure of the spheroids, 2.5% Matrigel™ can be added to the cell seeding solution. […]
All microspheroids were incubated for additional 5 days and analyzed with a Zeiss confocal microscope. […]

IP3-K = conditions: cited from earlier work
HCT116-GFPmiR21 cells [5] = assay: ASO intracellular release: anti-miR21 pretreatment, wash, then compound; format: cell-based, human; conditions: then drug
Description: A robotic screening of a library of tyrosine kinase inhibitors (TKIs) was performed. […] These compounds are under investigation with the aim of determining the mechanism and the lowest concentration required for maximal enhancement of ASO function. For the 14 compounds identified as active in the initial screen, EGFP reactivation was monitored every day for up to 6 days. To determine if any compound affected ASO intracellular release, cells were first treated with 1 μM anti-miR21 PS-mixmer. The next day the media was removed and cells were washed twice with PBS. After adding fresh media the cell were treated with 1 μM of each active compound. Since ASO uptake had already occurred, any enhancement of EGFP expression in active compound-treated cells would be an indication of improved ASO intracellular release.

PI3-Kα and δ = conditions: read-out: IC50 for PI3-Kα and δ; unit given as mM; cited from earlier work
[6] = system: androgen receptor (AR full length and AR variant 7) in LNCaP, LAPC-4, 22RV1 cells; assay: Androgen receptor expression in prostate cancer cell lines; format: cell-based
Description: Panels A-C, Prostate cancer cell lines LNCaP (A), LAPC-4 (B), and 22RV1 (C) were treated with inhibitor at indicated concentrations for indicated incubation times. FL, AR full length; V7, AR variant 7.
(§1) FIG. 10: TKI synergizes AR-ASO against AR expression and the AR signal pathway. […] MTS assay of LNCaP treated for 3 days with 1 uM TKI or 1 uM AR-ASO (AR-ASO-1) in the presence of the titrations of the paired drug.
Similar results have been obtained with Bcl-2.

LNCaP cells = assay: MTS cytotoxicity assay of TKI plus AR-ASO; format: cell-based; conditions: 3 days, 1 uM TKI or 1 uM AR-ASO with titration of the paired drug
Description: as §1

## CS(=O)(=O)c1ccc(-c2nc(-c3ccc(F)cc3)c(-c3ccncc3)[nH]2)cc1
[1]
  IC50: 200 nM

## Cc1cn(-c2cc(NC(=O)c3ccc(C)c(Nc4nccc(-c5cccnc5)n4)c3)cc(C(F)(F)F)c2)cn1 [nilotinib, 4-methyl-N-[3-(4-methyl-1H-imidazol-1-yl)-5-(trifluoromethyl)phenyl]-3-[(4-pyridin-3-ylpyrimidin-2-yl)amino]benzamide]
HCT116-GFPmiR21 cells [2]
  TKI effect on oligo penetration and EGFP produced per cell: shown to have activity

## c1ccc(-c2n[nH]cc2-c2ccnc3ccccc23)nc1
[3]
  IC50: 89 nM
Mink lung cells
  IC50: 47 nM

## COc1cccc2c1C(=O)c1c(O)c3c(c(O)c1C2=O)C[C@@](O)(C(=O)CO)C[C@@H]3O[C@H]1C[C@H](N)[C@H](O)[C@H](C)O1 [Doxorubicin]
[4]; FIG. 4-6
  Penetration into tumor spheroids (confocal Z-stacks): more uniform penetration

## O=[N+]([O-])c1ccc(CNc2nc(NCc3cccc(C(F)(F)F)c3)nc3[nH]cnc23)cc1
IP3-K
  IC50: 10200 nM

## CNC(=O)c1cc(Oc2ccc(NC(=O)Nc3ccc(Cl)c(C(F)(F)F)c3)cc2)ccn1 [Sorafenib]
HCT116-GFPmiR21 cells [2]
  TKI effect on oligo penetration and EGFP produced per cell: ineffective
  ASO uptake (eGFP activation), FIG. 3: Decreased uptake

## Cc1ccc(NC(=O)c2ccc(CN3CCN(C)CC3)cc2)cc1Nc1nccc(-c2cccnc2)n1 [imatinib, 4-[(4-methylpiperazin-1-yl)methyl]-N-(4-methyl-3-{[4-(pyridin-3-yl)pyrimidin-2-yl]amino}phenyl)benzamide]
[4]; TKI 100 nm-1 uM with oligo
  Penetration of the anti-mir21 oligo in tumor microspheroids: increased penetration
[4]; TKI with oligo
  Penetration of the Cy5-labeled anti-Bcl-2 oligo in tumor microspheroids: increased penetration was also seen
HCT116-GFPmiR21 cells [5]
  ASO release (eGFP activation), FIG. 3: increased release
HCT116-GFPmiR21 cells [2]
  ASO uptake (eGFP activation), FIG. 3: Increased uptake
HCT116-GFPmiR21 cells [2]; with anti-mir21 oligo, TKI 100 nm-1 uM
  EGFP expression in tissue culture: dramatically increased

## O=C1NC(=O)/C(=C/c2ccc3c(c2)OC(F)(F)O3)S1
PI3-Kα and δ
  IC50: > 0.02 mM

## O=C1Nc2cc(Br)ccc2/C1=C1/Nc2ccccc2/C1=N/O [Compound 6-BIO]
[6]; LNCaP, LAPC-4, 22RV1, AR full length and AR-V7
  Androgen receptor downregulation: can downregulate both forms; also recorded: downregulates
[6]; combined with AR-ASO, LNCaP and LAPC-4, 2 days
  Synergy with AR antisense oligo against AR expression and AR signal pathway: synergistic; also recorded: synergizes
LNCaP cells
  Cytotoxicity of the combination of TKI and AR-ASO (MTS assay): did not show increased cytoxicity
